In brackets after ≈: the same amount, converted by molar mass.
How the values were obtained:
Type in all cases: functional
Tetranychus cinnabarinus [1] = experiment: Insecticidal activity against compound susceptible Tetranychus cinnabarinus (carmine spider mite)
Tetranychus cinnabarinus [2] = experiment: Synergism ratio, LC50 for insecticidal activity against compound resistant Tetranychus cinnabarinus (carmine spider mite) to LC50 for insecticidal activity against compound resistant Tetranychus cinnabarinus in presence of piperonyl butoxide (PBO), diethyl maleate (DEM) and triphenyl phosphate (TPP)
Tetranychus cinnabarinus [3] = experiment: Resistance ratio, LC50 for insecticidal activity against compound resistant Tetranychus cinnabarinus (carmine spider mite) in presence of piperonyl butoxide (PBO), diethyl maleate (DEM) and triphenyl phosphate (TPP) to LC50 for insecticidal activity against compound susceptible Tetranychus cinnabarinus in presence of piperonyl butoxide (PBO), diethyl maleate (DEM) and triphenyl phosphate (TPP)
Tetranychus cinnabarinus [4] = experiment: Insecticidal activity against compound resistant Tetranychus cinnabarinus (carmine spider mite) in presence of piperonyl butoxide (PBO), diethyl maleate (DEM) and triphenyl phosphate (TPP)

How did the LC50 (Tetranychus cinnabarinus [1]) turn out when CC1(C)C(C(=O)OC(C#N)c2cccc(Oc3ccccc3)c2)C1(C)C (centres undefined) [FENPROPATHRIN] was run?
Its LC50 is 0.714 mg/mL (≈ 2040 µM).

And the Ratio (Tetranychus cinnabarinus [2])?
Its Ratio is 1.

What about the Ratio (Tetranychus cinnabarinus [3]) of the same compound?
The Ratio was 98.5.

And the LC50 (Tetranychus cinnabarinus [4])?
The LC50 was 70.3 mg/mL.

Reference: ChEMBL document CHEMBL3044876, “The sodium channel gene in Tetranychus cinnabarinus (Boisduval): identification and expression analysis of a mutation associated with pyrethroid resistance” (2011)
